Measured values: paper PMC3968691 (The FEBS journal, 2013)

Molecular target: Sts-1PGM (suppressor of T-cell receptor signaling-1 PGM domain) (Mus musculus, UniProt Q8BGG7, E490Q/H380C)
Assay: biochemical

Sts-1PGM (suppressor of T-cell receptor signaling-1 PGM domain), sequence (Q8BGG7 369-638 H380C/E490Q): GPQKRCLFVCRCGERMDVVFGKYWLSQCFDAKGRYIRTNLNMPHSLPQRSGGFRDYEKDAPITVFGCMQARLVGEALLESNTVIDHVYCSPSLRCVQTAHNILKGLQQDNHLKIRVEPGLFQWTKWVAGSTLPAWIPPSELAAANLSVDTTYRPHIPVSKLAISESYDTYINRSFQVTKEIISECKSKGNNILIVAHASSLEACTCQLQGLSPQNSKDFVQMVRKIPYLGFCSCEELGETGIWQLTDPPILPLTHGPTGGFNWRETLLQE

**Q.** `COc1ccc2c(c1)Oc1cc(OP(=O)(O)O)ccc1C21OC(=O)c2ccccc21` (stereo not shown) [OMFP] was tested. Which Kd did it give?
**A.** Its Kd is 5.71 µM.
